Assay results reported in patent publication US20210292851A1, “METHOD OF MONITORING EFFECTIVENESS OF IMMUNOTHERAPY OF CANCER PATIENTS” (Roche Sequencing Solutions, Inc., priority 2018, published 2021).

Experiments:
advanced NSCLC patients = assay: Phase 3 randomized trial, Atezolizumab vs docetaxel in second line advanced NSCLC: progression-free survival by baseline ctDNA mutation metric; format: in vivo, human; details: for Events/Total number of patients: PFS events
Source text: In a Phase 3, open-label, multicenter randomized controlled trial, NSCLC patients received either Atezolizumab or docetaxel in a second line setting of advanced NSCLC. Blood plasma samples were obtained from 102 patients prior to start of second line therapy. The AVENIO® ctDNA kit, Surveillance Panel (Roche Sequencing Solutions, Pleasanton, Calif.) was used to assess the number of mutations in patient samples. Cell-free DNA (cfDNA) from the patients was isolated and analyzed according to the manufacturer's instructions of the AVENIO® ctDNA Kit. The metrics assessed included the numbers of variants and maximum allele frequency (MaxAF, the highest allele frequency of a single mutation among all mutations detected within a single sample).
The “number of mutations” metric was assessed on the population level and patients were assessed for progression-free survival (PFS) and overall survival (OS). (FIGS. 1 and 2, Tables 2 and 3) Using median or 75th percentile cut-off, patients treated with Atezolizumab and with number of mutations greater or equal median or 75th percentile have longer progression survival compared to that of chemotherapy, with a HR of 0.67 or 0.49, respectively. Meanwhile, Atezolizumab didn't show more benefit vs chemotherapy in patients with number of mutations fewer than the median or 75th percentile. The HR is 1.12 and 1.05 for <median or <75 percentile, respectively.
The MaxAF detected in the blood samples was also used to assess its relationship with progression free survival and overall survival. Using median cut-off, patients with MaxAF greater than the median have longer progression free survival when treated with Atezolizumab compared to chemotherapy, with a HR of 0.56 (FIG. 3, Table 4). In patients with MaxAF lesser the median, no benefit was observed on treatment with Atezolizumab vs chemotherapy (HR of 1.45).

NSCLC patients [1] = assay: Same Phase 3 trial with serial ctDNA monitoring: overall survival by maxMMPM at C3D1; format: in vivo, human
Method: In this example, the patients' samples from the same Phase 3 trial as described in Example 1 were collected processed an analyzed essentially as described in Example 1. However, the samples were collected serially during the administration of therapy.
Multiple metrics of circulating tumor DNA (ctDNA) were assessed for association with OS.
Plasma from 94 patients taken at baseline and at subsequent cycles of therapy every three weeks (C2D1, C3D1, and C4D1) were analyzed retrospectively for ctDNA with the AVENIO ctDNA Surveillance Kit (Roche Sequencing Solutions, Pleasanton, Calif.) Mutations detected in matched PBMC DNA were excluded in correlation analyses with clinical outcomes. ctDNA was measured by allele frequency (AF) or mutant molecules per milliliter (MMPM), and summarized across multiple mutations within a sample by median, mean or maximum. Concordance between these per-sample metrics and PFS/OS were assessed using C index, which is equivalent to AUC under a Receiver Operating Characteristic (ROC) curve.
Specifically, samples were collected and assessed at drug administration cycle 1, 2, or 3 or 4 taken in each case, on day 1 (C1D1, C2D1, C3D1, and C4D1). […] Using the max MMPM at C3D1, the patients were dichotomized at a median for the entire cohort of 8.75 maximal MMPM. […] In the docetaxel arm, the 1-year survival rate among MMPM low vs MMPM high patients was 0.7 vs 0.07. Because mutation metrics obtained from overall ctDNA levels were associated with OS in metastatic NSCLC, ctDNA is a promising non-invasive blood based biomarker in the metastatic setting of NSCLC.

NSCLC patients [2] = details: ≥2L NSCLC patients; previously demonstrated by the study; cited from earlier work
[3] = number of detected variants <75th percentile (<12)
[4] = number of detected variants <Median (<6.5)
[5] = number of detected variants ≥75th percentile (≥12)
[6] = number of detected variants ≥Median (≥6.5)
[7] = patients with MaxAF <Median (<44.58) at baseline
[8] = patients with MaxAF ≥Median (≥44.58) at baseline
[9] = patients with number of detected variants <75th percentile (<12) at baseline
[10] = patients with number of detected variants <Median (<6.5) at baseline
[11] = patients with number of detected variants ≥75th percentile (≥12) at baseline
[12] = patients with number of detected variants ≥Median (≥6.5) at baseline
[13] = MMPM high patients (max MMPM at C3D1, dichotomized at median 8.75)
[14] = MMPM low patients (max MMPM at C3D1, dichotomized at median 8.75)

## CC(=O)O[C@@]12CO[C@@H]1C[C@H](O)[C@@]1(C)C(=O)[C@H](O)C3=C(C)[C@@H](OC(=O)[C@H](O)[C@@H](NC(=O)OC(C)(C)C)c4ccccc4)C[C@@](O)([C@@H](OC(=O)c4ccccc4)[C@H]21)C3(C)C [Docetaxel, docetaxel]
Advanced NSCLC patients; MaxAF <Median (<44.58)
  Events/Total number of patients: 27/28
Advanced NSCLC patients; MaxAF ≥Median (≥44.58)
  Events/Total number of patients: 23/23
Advanced NSCLC patients; [3]
  Events/Total number of patients: 37/37
Advanced NSCLC patients; [4]
  Events/Total number of patients: 27/27
Advanced NSCLC patients; [5]
  Events/Total number of patients: 13/14
Advanced NSCLC patients; [6]
  Events/Total number of patients: 23/24
Advanced NSCLC patients; [7]
  Median Progression Free Survival: 4.09
Advanced NSCLC patients; [8]
  Median Progression Free Survival: 3.09
Advanced NSCLC patients; [9]
  Median Progression Free Survival: 4.07
Advanced NSCLC patients; [10]
  Median Progression Free Survival: 3.98
Advanced NSCLC patients; [11]
  Median Progression Free Survival: 2.41
Advanced NSCLC patients; [12]
  Median Progression Free Survival: 2.94
NSCLC patients [1]; [13]
  1-year survival rate (OS): 0.07
NSCLC patients [1]; [14]
  1-year survival rate (OS): 0.7

## atezolizumab
Advanced NSCLC patients; MaxAF <Median (<44.58)
  Hazard Ratio (HR), progression free survival, Atezolizumab vs docetaxel: 1.45
  Events/Total number of patients: 22/23
Advanced NSCLC patients; MaxAF ≥Median (≥44.58)
  Hazard Ratio (HR), progression free survival, Atezolizumab vs docetaxel: 0.56
  Events/Total number of patients: 24/28
Advanced NSCLC patients; [3]
  Events/Total number of patients: 35/38
  Hazard Ratio (HR), progression free survival, Atezolizumab vs docetaxel: 1.05
Advanced NSCLC patients; [4]
  Events/Total number of patients: 23/24
  Hazard Ratio (HR), progression free survival, Atezolizumab vs docetaxel: 1.12
Advanced NSCLC patients; [5]
  Events/Total number of patients: 11/13
  Hazard Ratio (HR), progression free survival, Atezolizumab vs docetaxel: 0.49
Advanced NSCLC patients; [6]
  Events/Total number of patients: 23/27
  Hazard Ratio (HR), progression free survival, Atezolizumab vs docetaxel: 0.67
Advanced NSCLC patients; [7]
  Median Progression Free Survival: 2.6
Advanced NSCLC patients; [8]
  Median Progression Free Survival: 4.99
Advanced NSCLC patients; [9]
  Median Progression Free Survival: 2.71
Advanced NSCLC patients; [10]
  Median Progression Free Survival: 2.74
Advanced NSCLC patients; [11]
  Median Progression Free Survival: 5.85
Advanced NSCLC patients; [12]
  Median Progression Free Survival: 2.79
NSCLC patients [1]; [13]
  1-year survival rate (OS): 0.43
NSCLC patients [1]; [14]
  1-year survival rate (OS): 0.81
NSCLC patients [2]
  OS benefit, atezolizumab vs docetaxel: clinically significant OS benefit
